Measurements reported in patent US8142799B2, “High potency clinical anti-craving treatment and method of use” (priority 2001, dated 2012).

time to PH breakdown (L-Glutathione at a PH value of roughly 7 in the amino-acid component): a few weeks
PH above which L-glutathione itself breaks down (at compounding): above 7.2
Structure (SMILES): N[C@@H](CCC(=O)N[C@@H](CS)C(=O)NCC(=O)O)C(=O)O [L-glutathione]
